Series [1] concerns the target endopeptidase (LC) of botulinum neurotoxin serotype B (BoNTB) (Clostridium botulinum, UniProt P10844). In words: biochemical. As to conditions: for inhibition at 100 µM: read-out: % Inhibition at 100 μM, BoNTB LC. Type of series: biochemical.
Series [2] has as its target endopeptidase (LC) of botulinum neurotoxin serotype A (BoNTA) (Clostridium botulinum, UniProt P0DPI0). In words: biochemical. The settings on record: for inhibition at 100 µM: read-out: % Inhibition at 100 μM, BoNTA LC.
A further series concerns the target BoNTA light chain (Clostridium botulinum, UniProt P0DPI0). Description: biochemical.

Entries after “also recorded” stand apart in the source; their conditions may differ. Where two headings read alike, the source gives them in different places. A value given as a limit tells only on which side of the number the result lay.

Chain of endopeptidase (LC) of botulinum neurotoxin serotype B (BoNTB) (P10844 2-441 limits assumed): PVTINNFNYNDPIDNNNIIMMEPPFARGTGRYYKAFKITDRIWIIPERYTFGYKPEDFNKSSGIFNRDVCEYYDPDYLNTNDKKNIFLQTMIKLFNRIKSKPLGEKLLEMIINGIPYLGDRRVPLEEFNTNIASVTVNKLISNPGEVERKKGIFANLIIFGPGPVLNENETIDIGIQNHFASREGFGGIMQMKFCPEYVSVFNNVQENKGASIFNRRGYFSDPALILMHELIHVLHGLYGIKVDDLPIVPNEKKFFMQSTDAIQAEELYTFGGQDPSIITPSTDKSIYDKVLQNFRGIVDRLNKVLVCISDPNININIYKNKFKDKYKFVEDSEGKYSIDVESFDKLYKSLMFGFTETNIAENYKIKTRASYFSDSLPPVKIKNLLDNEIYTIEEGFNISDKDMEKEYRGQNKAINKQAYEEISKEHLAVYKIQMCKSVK
Chain of endopeptidase (LC) of botulinum neurotoxin serotype A (BoNTA) (P0DPI0 2-448 limits assumed): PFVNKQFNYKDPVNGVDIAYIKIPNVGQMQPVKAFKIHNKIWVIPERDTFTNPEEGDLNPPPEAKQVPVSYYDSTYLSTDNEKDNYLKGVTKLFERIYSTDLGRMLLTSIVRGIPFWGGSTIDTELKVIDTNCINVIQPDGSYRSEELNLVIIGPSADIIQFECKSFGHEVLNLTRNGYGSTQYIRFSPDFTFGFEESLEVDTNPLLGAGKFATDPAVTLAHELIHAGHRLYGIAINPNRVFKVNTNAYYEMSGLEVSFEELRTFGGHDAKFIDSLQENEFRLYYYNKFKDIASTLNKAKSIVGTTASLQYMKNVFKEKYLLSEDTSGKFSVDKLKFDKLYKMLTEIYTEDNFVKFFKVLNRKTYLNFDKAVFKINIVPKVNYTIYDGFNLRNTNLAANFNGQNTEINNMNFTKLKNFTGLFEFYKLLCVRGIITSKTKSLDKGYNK
Chain of BoNTA light chain (P0DPI0 2-448 limits assumed): as above

Usually inhibition stands for the relative decrease from the control value, in per cent. Turning to `O=C(Cc1cc(C(=O)c2ccc(Cl)cc2)sc1-c1ccccc1)NO` [Compound 2, 2-[5-(4-Chlorobenzoyl)-2-phenylthiophene-3-yl]-N-hydroxyacetamide], in series [1], the “effect on the endopeptidase of BoNTB, in words” value (from here on “effect on the endopeptidase”) was “no effect” and the inhibition at 100 µM was 0%. In series [2], the “inhibition of the endopeptidase of BoNTA, in words (comparisons)” value (from here on “inhibition of the endopeptidase of BoNTA”) is recorded as “more active in inhibiting the endopeptidase than 1” and the inhibition at 100 µM amounted to 30%.
Usually melting point stands for the temperature of the solid-liquid transition. With `Nc1cc(C(=O)c2cc(CC(=O)NO)c(-c3ccccc3)s2)ccc1I` [Compound 4, 2-[5-(3-Amino-4-iodobenzoyl)-2-phenylthiophene-3-yl]-N-hydroxyacetamide], the melting point is > 170 °C (dec.). In addition, in series [1], the “effect on the endopeptidase” value was “no effect” and the inhibition at 100 µM turned out to be 0%. For the same compound, in series [2], the “inhibition of the endopeptidase of BoNTA” value is listed as “more active in inhibiting the endopeptidase than 2” and the inhibition at 100 µM turned out to be 40%.
On to `O=C(O)Cc1cc(C(=O)c2ccc3cc(-c4ccccc4)[nH]c3c2)sc1-c1ccccc1` [Compound 8, [2-Phenyl-5-(2-phenyl-1H-indole-6-carbonyl)thiophene-3-yl]acetic acid], for which the “inhibition of the endopeptidase of BoNTA” value in series [2] was “less potent in inhibiting the endopeptidase than 1 and 2”.
One may read the Ki as a measure of affinity in units of concentration, obtained from inhibition or displacement. Regarding `Cl.NCCCCn1c(-c2ccccc2)cc2ccc(C(=O)c3cc(CC(=O)NO)c(-c4ccccc4)s3)cc21` [Compound 12, 2-{5-[1-(4-Aminobutyl)-2-phenyl-1H-indole-6-carbonyl]-2-phenylthiophene-3-yl}-N-hydroxyacetamide hydrochloride], the Ki on BoNTA light chain stood at 12 ± 2.6 µM. For the same compound, in series [1] (hydrochloride), the “effect on the endopeptidase” value is listed as “no effect; also recorded: did not inhibit”. For the same compound, the inhibition at 100 µM in series [1] was determined as 0%. In series [2], the “effect of adding more zinc on the inhibition of BoNTA” value is “no effect” and the inhibition at 100 µM turned out to be 96%. The inhibition at 15 µM in series [2] (read-out: % inhibition of BoNTA at 15 μM) is 48%.
In turn, `NNC(=O)Cc1cc(C(=O)c2ccc(Br)cc2)sc1-c1ccccc1` [Compound 6, [5-(4-Bromobenzoyl)-2-phenylthiophene-3-yl]acetic acid hydrazide] yielded a melting point of 157 to 161 °C.
In turn, `NNC(=O)Cc1cc(C(=O)c2ccc(I)c(N)c2)sc1-c1ccccc1` [Compound 7, [5-(3-Amino-4-iodobenzoyl)-2-phenylthiophene-3-yl]acetic acid hydrazide] gave a melting point of 159 to 165 °C.
The same measure, in the same setting: the value for `O=C(Cc1cc(C(=O)c2ccc(I)c([N+](=O)[O-])c2)sc1-c1ccccc1)NO` [Compound 5, 2-[5-(3-Nitro-4-iodobenzoyl)-2-phenylthiophene-3-yl]-N-hydroxyacetamide] was 147 to 151 °C.
In the case of `O=C(O)Cc1cc(C(=O)c2ccc(Cl)cc2)sc1-c1ccccc1` [Compound 1, [5-(4-Chlorobenzoyl)-2-phenylthiophene-3-yl]acetic acid], the inhibition at 100 µM in series [2] was 15%.
`O=C(Cc1cc(C(=O)c2ccc3cc(-c4ccccc4)[nH]c3c2)sc1-c1ccccc1)NO` [Compound 9, N-Hydroxy-2-[2-phenyl-5-(2-phenyl-1H-indole-6-carbonyl)thiophene-3-yl]acetamide]: in series [2], the “inhibition of the endopeptidase of BoNTA” value is “less potent in inhibiting the endopeptidase than 1 and 2”.

These data come from patent US8492428B2 (priority 2005, dated 2013).
